{"source": "ChEMBL document CHEMBL1144669", "about": "“Pyridazinone derivatives: design, synthesis, and in vitro vasorelaxant activity” (2008)"}
{"test": "Vasorelaxant effect in rabbit pulmonary artery assessed as inhibition of KCl-induced contraction at 100 uM", "format": "functional", "conditions": "Oryctolagus cuniculus", "units": {"inhibition at 100 µM": "%"}}
{"smiles": "Cc1ccc2nc(C)cc(Nc3ccc(C4=NNC(=O)CC4)c(O)c3)c2c1", "inhibition at 100 µM": 18.5}
{"smiles": "CCOC(=O)c1c[nH]c2ccc(C3=NNC(=O)CC3C)cc2c1=O", "note": "(stereo unspecified)", "inhibition at 100 µM": 14.5}
{"smiles": "Cc1ccc2nc(C)cc(Nc3ccc(C4=NNC(=O)CC4C)cc3)c2c1", "note": "(stereo unspecified)", "inhibition at 100 µM": 22.7}
{"smiles": "COc1ccc2nc(C)cc(Nc3ccc(C4=NNC(=O)CC4)c(O)c3)c2c1", "inhibition at 100 µM": 34.3}
{"smiles": "COc1ccc2nc(C)cc(Nc3ccc(C4=NNC(=O)CC4C)cc3)c2c1", "note": "(stereo unspecified)", "inhibition at 100 µM": 21.5}
{"smiles": "CCOC(=O)c1c[nH]c2ccc(C3=NNC(=O)CC3)cc2c1=O", "inhibition at 100 µM": 14.5}
{"smiles": "COc1ccc2nc(C)cc(Nc3ccc(C4=NNC(=O)CC4)c(C)c3)c2c1", "inhibition at 100 µM": 25}
{"smiles": "CCOc1ccc2nc(C)cc(Nc3ccc(C4=NNC(=O)CC4)c(O)c3)c2c1", "inhibition at 100 µM": 36.2}
{"smiles": "Cc1[nH]c(=O)c(C#N)cc1-c1ccncc1", "note": "[MILRINONE]", "inhibition at 100 µM": 60.5}
{"smiles": "N#Cc1c(-c2cccc([N+](=O)[O-])c2)cc(-c2cccc(Nc3ccc(=O)[nH]n3)c2)[nH]c1=O", "inhibition at 100 µM": 9.1}
{"smiles": "N#Cc1c(-c2cccnc2)cc(-c2cccc(Nc3ccc(=O)[nH]n3)c2)[nH]c1=O", "inhibition at 100 µM": 8.17}
